Reference: publication PMC9186362, “Design and biological evaluation of substituted 5,7-dihydro-6H-indolo[2,3-c]quinolin-6-one as novel selective Haspin inhibitors” (Journal of Enzyme Inhibition and Medicinal Chemistry, 2022)

How the values were obtained:
[1] = molecular target: RnDYRK1A (Rattus norvegicus, UniProt Q63470); assay: ADP-Glo kinase assay; assay type: biochemical, Rattus norvegicus (Rn)
Method: Kinase activities were determined using the ADP-Glo methodology (ADP-Glo Kinase Assay; Promega) according to the assay described by Nguyen et al.[32] except for MmCLK1. The later was assayed in the following buffer: 10 mM MgCl2, 1 mM EGTA, 1 mM DTT, 25 mM Tris-HCl pH 7.5, 50 µg/ml heparin, 0.15 mg/ml BSA, with 0.027 µg/µl of the following peptide: GRSRSRSRSRSR as substrate.

[2] = molecular target: T1, SPHK1 (Homo sapiens, UniProt Q9NYA1); assay: SelectScreen Adapta; assay type: biochemical; settings: ATP Km, read-out: Percentage of inhibition
T1 construct: purchased Life Technologies (SelectScreen Whole Panel)
T1 sequence (Q9NYA1 whole entry): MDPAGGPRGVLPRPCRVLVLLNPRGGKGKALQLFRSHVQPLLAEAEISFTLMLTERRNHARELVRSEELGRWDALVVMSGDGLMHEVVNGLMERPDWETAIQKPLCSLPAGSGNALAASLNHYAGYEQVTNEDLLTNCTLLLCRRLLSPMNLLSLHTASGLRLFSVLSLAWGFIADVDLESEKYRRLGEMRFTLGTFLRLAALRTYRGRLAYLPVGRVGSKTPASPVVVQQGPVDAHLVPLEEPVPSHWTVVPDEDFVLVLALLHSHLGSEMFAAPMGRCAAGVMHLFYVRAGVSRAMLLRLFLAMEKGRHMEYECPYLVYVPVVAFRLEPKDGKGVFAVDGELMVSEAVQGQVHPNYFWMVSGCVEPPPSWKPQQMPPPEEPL
Method: (§1) We further evaluated the selectivity profile of compound 55 on a larger panel of kinases (SelectScreen Whole Panel, Life Technologies). The inhibition profile of 55, evaluated at 1 μM, is depicted on a dendrogram on Figure 3 where kinases inhibited by a minimum of 80% are shown. A full list of the kinases tested is shown on Table S1 in supplementary information.

[3] = molecular target: PIK3C2A (PI3K-C2 alpha) (Homo sapiens, UniProt O00443); assay: SelectScreen Adapta; assay type: biochemical; settings: ATP Km, read-out: Percentage of inhibition
Method: as §1

[4] = molecular target: T2, SPHK2 (Homo sapiens, UniProt Q9NRA0); assay: SelectScreen Adapta; assay type: biochemical; settings: ATP 10 µM, read-out: Percentage of inhibition
T2 construct: purchased Life Technologies (SelectScreen Whole Panel)
Method: as §1

[5] = molecular target: PIK3C2B (Homo sapiens, UniProt O00750); assay: SelectScreen Adapta; assay type: biochemical; settings: ATP 10 µM, read-out: Percentage of inhibition
Method: as §1

[6] = molecular target: T3, CDK4/cyclin D3 (Homo sapiens, UniProt P11802); assay: SelectScreen Adapta; assay type: biochemical; settings: ATP 10 µM, read-out: Percentage of inhibition
T3 construct: purchased Life Technologies
T3 sequence (P11802 whole entry): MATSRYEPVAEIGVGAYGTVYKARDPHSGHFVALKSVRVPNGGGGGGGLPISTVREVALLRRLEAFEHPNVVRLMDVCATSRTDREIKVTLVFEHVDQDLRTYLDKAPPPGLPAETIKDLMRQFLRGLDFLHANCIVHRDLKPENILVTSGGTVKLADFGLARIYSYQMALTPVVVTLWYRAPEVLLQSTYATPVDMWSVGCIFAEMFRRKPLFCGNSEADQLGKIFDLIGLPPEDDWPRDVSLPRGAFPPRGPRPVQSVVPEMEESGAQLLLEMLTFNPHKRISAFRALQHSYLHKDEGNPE
T3 sequence (P30281 whole entry partner): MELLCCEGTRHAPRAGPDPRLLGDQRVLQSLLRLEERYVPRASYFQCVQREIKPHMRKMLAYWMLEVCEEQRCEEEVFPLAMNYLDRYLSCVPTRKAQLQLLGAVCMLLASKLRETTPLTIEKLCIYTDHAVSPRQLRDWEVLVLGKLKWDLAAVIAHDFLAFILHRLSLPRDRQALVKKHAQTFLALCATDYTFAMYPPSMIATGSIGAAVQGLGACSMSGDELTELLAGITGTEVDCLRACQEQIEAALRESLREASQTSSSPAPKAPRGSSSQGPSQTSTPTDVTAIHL
Method: as §1

[7] = molecular target: T4, LRRK2 FL (Homo sapiens, UniProt Q5S007); assay: SelectScreen Adapta; assay type: biochemical; settings: ATP Km, read-out: Percentage of inhibition
T4 construct: purchased Life Technologies
Method: as §1

[8] = molecular target: T5, CAMK1 (CaMK1) (Homo sapiens, UniProt Q14012); assay: SelectScreen Adapta; assay type: biochemical; settings: ATP 10 µM, read-out: Percentage of inhibition
T5 construct: purchased Life Technologies (SelectScreen Whole Panel service)
Method: as §1

[9] = molecular target: PIP4K2A (Homo sapiens, UniProt P48426); assay: SelectScreen Adapta; assay type: biochemical; settings: ATP 10 µM, read-out: Percentage of inhibition
Method: as §1

[10] = molecular target: T6, PI4KA (PI4K alpha) (Homo sapiens, UniProt P42356); assay: SelectScreen Adapta; assay type: biochemical; settings: ATP 10 µM, read-out: Percentage of inhibition
T6 construct: purchased Life Technologies (SelectScreen Whole Panel)
T6 sequence (P42356 whole entry): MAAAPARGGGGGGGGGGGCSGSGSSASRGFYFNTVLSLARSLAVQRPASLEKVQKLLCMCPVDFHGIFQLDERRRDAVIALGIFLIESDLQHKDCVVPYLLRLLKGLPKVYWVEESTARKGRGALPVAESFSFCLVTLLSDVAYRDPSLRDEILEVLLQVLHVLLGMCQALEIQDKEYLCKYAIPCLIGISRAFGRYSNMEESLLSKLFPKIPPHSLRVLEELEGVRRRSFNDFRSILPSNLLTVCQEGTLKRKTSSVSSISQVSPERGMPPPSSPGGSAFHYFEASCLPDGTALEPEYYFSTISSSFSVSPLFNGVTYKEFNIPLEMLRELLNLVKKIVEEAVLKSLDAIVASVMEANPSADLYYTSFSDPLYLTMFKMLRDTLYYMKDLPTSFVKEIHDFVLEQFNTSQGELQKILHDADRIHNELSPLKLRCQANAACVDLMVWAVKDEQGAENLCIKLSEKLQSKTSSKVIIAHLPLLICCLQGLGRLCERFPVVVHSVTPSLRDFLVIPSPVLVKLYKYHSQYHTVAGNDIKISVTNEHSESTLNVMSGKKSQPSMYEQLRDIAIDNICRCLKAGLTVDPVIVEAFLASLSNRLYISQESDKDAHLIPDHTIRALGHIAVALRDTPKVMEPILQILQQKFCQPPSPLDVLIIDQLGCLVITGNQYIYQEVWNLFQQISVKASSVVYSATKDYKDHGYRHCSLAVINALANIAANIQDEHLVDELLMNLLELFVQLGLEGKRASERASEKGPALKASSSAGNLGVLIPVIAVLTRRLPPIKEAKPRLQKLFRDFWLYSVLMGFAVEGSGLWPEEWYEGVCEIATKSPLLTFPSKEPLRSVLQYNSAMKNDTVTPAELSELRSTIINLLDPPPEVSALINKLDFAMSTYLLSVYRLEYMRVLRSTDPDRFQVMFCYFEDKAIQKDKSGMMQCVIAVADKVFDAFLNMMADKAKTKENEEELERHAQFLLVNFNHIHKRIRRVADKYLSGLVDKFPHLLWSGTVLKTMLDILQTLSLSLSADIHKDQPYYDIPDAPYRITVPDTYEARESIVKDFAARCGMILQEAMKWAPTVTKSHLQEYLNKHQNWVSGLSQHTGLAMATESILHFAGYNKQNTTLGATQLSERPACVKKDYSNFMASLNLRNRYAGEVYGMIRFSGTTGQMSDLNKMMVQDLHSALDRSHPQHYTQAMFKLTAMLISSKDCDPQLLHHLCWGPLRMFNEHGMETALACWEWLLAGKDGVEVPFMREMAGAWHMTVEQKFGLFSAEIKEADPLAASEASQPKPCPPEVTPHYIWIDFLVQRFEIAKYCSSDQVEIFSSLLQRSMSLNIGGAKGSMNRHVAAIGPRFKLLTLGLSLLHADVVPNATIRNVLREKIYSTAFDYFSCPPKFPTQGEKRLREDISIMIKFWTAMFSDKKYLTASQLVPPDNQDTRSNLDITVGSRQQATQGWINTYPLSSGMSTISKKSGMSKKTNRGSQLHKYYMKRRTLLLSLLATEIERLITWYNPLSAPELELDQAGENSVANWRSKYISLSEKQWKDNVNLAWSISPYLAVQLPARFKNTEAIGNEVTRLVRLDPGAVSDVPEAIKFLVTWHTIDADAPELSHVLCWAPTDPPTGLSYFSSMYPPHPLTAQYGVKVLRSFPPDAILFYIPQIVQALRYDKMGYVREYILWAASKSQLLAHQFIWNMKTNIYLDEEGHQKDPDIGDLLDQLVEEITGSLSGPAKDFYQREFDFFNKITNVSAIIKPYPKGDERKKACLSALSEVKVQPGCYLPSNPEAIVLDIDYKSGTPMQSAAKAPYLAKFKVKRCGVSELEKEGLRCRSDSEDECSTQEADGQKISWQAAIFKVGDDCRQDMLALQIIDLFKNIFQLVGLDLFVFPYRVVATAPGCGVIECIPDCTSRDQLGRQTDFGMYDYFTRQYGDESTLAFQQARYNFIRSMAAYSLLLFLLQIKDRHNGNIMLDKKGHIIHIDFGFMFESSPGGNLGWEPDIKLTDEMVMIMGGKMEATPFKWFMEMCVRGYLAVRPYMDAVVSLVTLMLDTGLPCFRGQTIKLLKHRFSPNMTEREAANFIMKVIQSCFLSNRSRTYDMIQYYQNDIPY
Method: as §1

[11] = molecular target: T7, LRRK2 G2019S (Homo sapiens, UniProt Q5S007, G2019S); assay: SelectScreen Adapta; assay type: biochemical; settings: ATP Km, read-out: Percentage of inhibition
T7 construct: purchased Life Technologies
Method: as §1

[12] = molecular target: PIK3CA E542K/PIK3R1 (p110 alpha E542K/p85 alpha (Homo sapiens, UniProt P42336, E542K)); assay: SelectScreen Adapta; assay type: biochemical; settings: ATP 10 µM, read-out: Percentage of inhibition
Method: as §1

[13] = molecular target: T8, GSG2 (Haspin) (Homo sapiens, UniProt Q8TF76); assay: SelectScreen Adapta; assay type: biochemical; settings: ATP Km, read-out: Percentage of inhibition
T8 construct: purchased Life Technologies (SelectScreen Whole Panel)
T8 sequence (Q8TF76 whole entry): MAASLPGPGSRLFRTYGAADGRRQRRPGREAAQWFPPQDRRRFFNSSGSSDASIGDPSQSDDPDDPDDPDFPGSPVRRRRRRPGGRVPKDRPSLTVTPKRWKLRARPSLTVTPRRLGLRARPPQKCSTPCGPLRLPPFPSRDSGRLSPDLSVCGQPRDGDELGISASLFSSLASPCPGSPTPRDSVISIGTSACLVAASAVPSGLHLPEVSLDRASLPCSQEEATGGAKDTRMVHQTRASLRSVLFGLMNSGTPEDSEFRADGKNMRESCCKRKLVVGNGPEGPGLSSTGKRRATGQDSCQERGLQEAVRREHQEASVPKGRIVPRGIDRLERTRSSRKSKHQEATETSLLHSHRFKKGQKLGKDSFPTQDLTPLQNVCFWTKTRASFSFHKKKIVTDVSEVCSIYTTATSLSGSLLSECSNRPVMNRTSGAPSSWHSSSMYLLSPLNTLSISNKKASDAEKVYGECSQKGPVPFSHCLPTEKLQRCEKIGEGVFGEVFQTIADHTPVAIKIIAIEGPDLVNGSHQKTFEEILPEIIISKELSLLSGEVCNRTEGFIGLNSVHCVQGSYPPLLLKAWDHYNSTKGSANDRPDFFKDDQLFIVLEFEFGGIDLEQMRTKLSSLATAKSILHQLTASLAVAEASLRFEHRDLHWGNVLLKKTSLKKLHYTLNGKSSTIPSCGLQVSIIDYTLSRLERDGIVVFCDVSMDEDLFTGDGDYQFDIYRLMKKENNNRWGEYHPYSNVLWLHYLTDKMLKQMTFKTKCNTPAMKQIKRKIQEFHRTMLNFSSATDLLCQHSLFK
Method: as §1

[14] = molecular target: CDK9/cyclin T1 (Homo sapiens, UniProt P50750); assay: SelectScreen Adapta; assay type: biochemical; settings: ATP Km, read-out: Percentage of inhibition
Method: as §1

[15] = molecular target: PIK3CG (p110 gamma) (Homo sapiens, UniProt P48736); assay: SelectScreen Adapta; assay type: biochemical; settings: ATP Km, read-out: Percentage of inhibition
Method: as §1

[16] = molecular target: T9, PIK3CB/PIK3R1 (p110 beta/p85 alpha) (Homo sapiens, UniProt P42338); assay: SelectScreen Adapta; assay type: biochemical; settings: ATP Km, read-out: Percentage of inhibition
T9 construct: purchased Life Technologies (SelectScreen)
Method: as §1

[17] = molecular target: T10, CDK4/cyclin D1 (Homo sapiens, UniProt P11802); assay: SelectScreen Adapta; assay type: biochemical; settings: ATP 10 µM, read-out: Percentage of inhibition
T10 construct: purchased Life Technologies (SelectScreen Whole Panel service)
T10 sequence (P11802 whole entry): as the sequence (P11802 whole entry) above
T10 sequence (P24385 whole entry partner): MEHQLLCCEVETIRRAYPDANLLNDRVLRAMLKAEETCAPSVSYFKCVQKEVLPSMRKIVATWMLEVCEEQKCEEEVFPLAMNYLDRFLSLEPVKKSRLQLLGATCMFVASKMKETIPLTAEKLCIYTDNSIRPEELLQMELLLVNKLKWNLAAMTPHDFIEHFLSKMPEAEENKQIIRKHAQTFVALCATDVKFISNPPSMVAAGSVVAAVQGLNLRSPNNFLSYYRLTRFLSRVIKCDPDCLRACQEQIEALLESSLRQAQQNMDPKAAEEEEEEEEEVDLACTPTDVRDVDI
Method: as §1

[18] = molecular target: T11, PIP5K1C (Homo sapiens, UniProt O60331); assay: SelectScreen Adapta; assay type: biochemical; settings: ATP 10 µM, read-out: Percentage of inhibition
T11 construct: purchased Life Technologies (SelectScreen Whole Panel service)
Method: as §1

[19] = molecular target: T12, LRRK2 R1441C (Homo sapiens, UniProt Q5S007, R1441C); assay: SelectScreen Adapta; assay type: biochemical; settings: ATP Km, read-out: Percentage of inhibition
T12 construct: purchased Life Technologies
Method: as §1

[20] = molecular target: T13, LRRK2 I2020T (Homo sapiens, UniProt Q5S007, I2020T); assay: SelectScreen Adapta; assay type: biochemical; settings: ATP Km, read-out: Percentage of inhibition
T13 construct: purchased Life Technologies (SelectScreen Whole Panel)
Method: as §1

[21] = molecular target: T14, PIP5K1A (Homo sapiens, UniProt Q99755); assay: SelectScreen Adapta; assay type: biochemical; settings: ATP 10 µM, read-out: Percentage of inhibition
T14 construct: purchased Life Technologies (SelectScreen service)
T14 sequence (Q99755 whole entry): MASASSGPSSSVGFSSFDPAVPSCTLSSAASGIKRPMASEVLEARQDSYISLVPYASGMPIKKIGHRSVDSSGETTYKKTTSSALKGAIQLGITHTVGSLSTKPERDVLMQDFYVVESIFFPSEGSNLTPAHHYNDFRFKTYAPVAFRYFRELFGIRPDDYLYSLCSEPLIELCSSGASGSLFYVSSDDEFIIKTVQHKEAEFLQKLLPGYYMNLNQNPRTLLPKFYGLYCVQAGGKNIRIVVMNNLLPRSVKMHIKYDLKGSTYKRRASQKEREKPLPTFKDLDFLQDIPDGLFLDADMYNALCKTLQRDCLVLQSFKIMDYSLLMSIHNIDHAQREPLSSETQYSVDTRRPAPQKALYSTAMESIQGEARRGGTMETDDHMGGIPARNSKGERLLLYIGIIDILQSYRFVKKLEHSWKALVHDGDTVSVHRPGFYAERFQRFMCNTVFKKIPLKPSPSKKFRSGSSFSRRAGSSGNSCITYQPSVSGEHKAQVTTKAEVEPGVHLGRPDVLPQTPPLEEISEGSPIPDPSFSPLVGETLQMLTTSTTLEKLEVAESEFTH
Method: as §1

[22] = molecular target: T15, PIK3CA/PIK3R3 (p110 alpha/p55 gamma) (Homo sapiens, UniProt P42336); assay: SelectScreen Adapta; assay type: biochemical; settings: ATP Km, read-out: Percentage of inhibition
T15 construct: purchased Life Technologies (SelectScreen Whole Panel)
Method: as §1

[23] = molecular target: T16, PI4KB (PI4K beta) (Homo sapiens, UniProt Q9UBF8); assay: SelectScreen Adapta; assay type: biochemical; settings: ATP Km, read-out: Percentage of inhibition
T16 construct: purchased Life Technologies
Method: as §1

[24] = molecular target: T17, PIK3CA E545K/PIK3R1 (p110 alpha E545K/p85 alpha) (Homo sapiens, UniProt P42336, E545K); assay: SelectScreen Adapta; assay type: biochemical; settings: ATP Km, read-out: Percentage of inhibition
T17 construct: purchased Life Technologies (SelectScreen Whole Panel)
Method: as §1

[25] = molecular target: T18, PIK3CD/PIK3R1 (p110 delta/p85 alpha) (Homo sapiens, UniProt O00329); assay: SelectScreen Adapta; assay type: biochemical; settings: ATP Km, read-out: Percentage of inhibition
T18 construct: purchased Life Technologies (SelectScreen Whole Panel service)
Method: as §1

[26] = molecular target: PIK3CA/PIK3R1 (p110 alpha/p85 alpha) (Homo sapiens, UniProt P42336); assay: SelectScreen Adapta; assay type: biochemical; settings: ATP Km, read-out: Percentage of inhibition
Method: as §1

[27] = molecular target: T19, LRRK2 G2019S FL (Homo sapiens, UniProt Q5S007, G2019S); assay: SelectScreen Adapta; assay type: biochemical; settings: ATP Km, read-out: Percentage of inhibition
T19 construct: LRRK2 G2019S FL; purchased Life Technologies (SelectScreen Whole Panel)
Method: as §1

[28] = molecular target: T20, PI4K2B (PI4K2 beta) (Homo sapiens, UniProt Q8TCG2); assay: SelectScreen Adapta; assay type: biochemical; settings: ATP Km, read-out: Percentage of inhibition
T20 construct: purchased Life Technologies (SelectScreen Whole Panel)
Method: as §1

[29] = molecular target: T21, PI4K2A (PI4K2 alpha) (Homo sapiens, UniProt Q9BTU6); assay: SelectScreen Adapta; assay type: biochemical; settings: ATP Km, read-out: Percentage of inhibition
T21 construct: purchased Life Technologies (SelectScreen Whole Panel)
Method: as §1

[30] = molecular target: NUAK1 (ARK5) (Homo sapiens, UniProt O60285); assay: SelectScreen Adapta; assay type: biochemical; settings: ATP Km, read-out: Percentage of inhibition
Method: as §1

[31] = molecular target: T22, PIK3CB/PIK3R2 (p110 beta/p85 beta) (Homo sapiens, UniProt P42338); assay: SelectScreen Adapta; assay type: biochemical; settings: ATP Km, read-out: Percentage of inhibition
T22 construct: purchased Life Technologies
Method: as §1

[32] = molecular target: CDK6/cyclin D1 (Homo sapiens, UniProt Q00534); assay: SelectScreen Adapta; assay type: biochemical; settings: ATP 10 µM, read-out: Percentage of inhibition
Method: as §1

SMILES: COc1ccc2[nH]c3c(=O)[nH]c4ccc(O)cc4c3c2c1 [Compound 55, 2-Hydroxy-10-methoxy-5,7-dihydro-6H-indolo[2,3-c]quinolin-6-one]
- Selectivity index DYRK/Haspin ([1]; IC50 DYRK1A/IC50 Haspin): 65
- IC50 ([1]; dose-response curve, each point in duplicate, read-out: Kinase inhibition (IC50) DYRK1A): 130 nM
- remaining activity ([1]; mean n = 2, % of maximum activity of DMSO control, read-out: % Residual activity at 1 μM DYRK1A): 2%
- inhibition at 1 µM [2]: -3%
- inhibition at 1 µM [3]: 14%
- inhibition at 1 µM [4]: -1%
- inhibition at 1 µM [5]: 67%
- inhibition at 1 µM [6]: 5%
- inhibition at 1 µM [7]: 95%
- inhibition at 1 µM [8]: 10%
- inhibition at 1 µM [9]: 13%
- inhibition at 1 µM [10]: 0%
- inhibition at 1 µM [11]: 95%
- inhibition at 1 µM [12]: 70%
- inhibition at 1 µM [13]: 100%
- inhibition at 1 µM [14]: 70%
- inhibition at 1 µM [15]: 19%
- inhibition at 1 µM [16]: 9%
- inhibition at 1 µM [17]: 12%
- inhibition at 1 µM [18]: 49%
- inhibition at 1 µM [19]: 93%
- inhibition at 1 µM [20]: 100%
- inhibition at 1 µM [21]: 23%
- inhibition at 1 µM [22]: 53%
- inhibition at 1 µM [23]: 41%
- inhibition at 1 µM [24]: 51%
- inhibition at 1 µM [25]: 44%
- inhibition at 1 µM [26]: 62%
- inhibition at 1 µM [27]: 98%
- inhibition at 1 µM [28]: 1%
- inhibition at 1 µM [29]: 1%
- inhibition at 1 µM [30]: 65%
- inhibition at 1 µM [31]: 33%
- inhibition at 1 µM [32]: 14%
